US7868026B2, “Therapeutic compounds” (Pfizer Inc., priority 2005, dated 2011)
Where two headings read alike, the source gives them in different places.

Legend:
Type in all cases: biochemical
CYP3A4 [1] = target: T1, CYP3A4 (Homo sapiens, UniProt P08684); test: Determination of IC50 against CYP3A4 by measurement of inhibition of testosterone metabolism (human liver microsomes, 6-β-OH-testosterone by LC-MS/MS); set-up: 0.1 mg/mL human liver microsomes; details: read-out: IC50 (Testo.)
How it was run: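 Human liver microsomes (0.1 mg/mL) incubated with 25 μM testosterone and 1 mM NADPH in 100 mM potassium phosphate, pH 7.4, for eight minutes. 6-β-OH-testosterone measured by LC-MS/MS in MRM mode against an internal standard and quantified from a metabolite standard curve.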

CYP3A4 [2] = target: T1, CYP3A4; test: Determination of IC50 against CYP3A4 by measurement of inhibition of midazolam metabolism (human liver microsomes, 1-hydroxymidazolam by LC-MS/MS); set-up: 0.1 mg/mL human liver microsomes; details: 2 μM midazolam, 0.1 mg/mL human liver microsomes
How it was run: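 Human liver microsomes (0.1 mg/mL) incubated 8 min with 2 μM midazolam and 1 mM NADPH in 100 mM potassium phosphate, pH 7.4. 1-Hydroxymidazolam quantified by LC-MS/MS (MRM) as peak area ratio to internal standard against a metabolite standard curve.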

CYP3A4 [3] = target: T1, CYP3A4; test: Determination of compound Kiapp against recombinant CYP3A4 enzyme (BFC fluorescent substrate)
How it was run: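 Recombinant CYP3A4 (5.5 or 8 nM, with or without b5 depending on source) pre-incubated with inhibitor ≥30 min at room temperature in 100 mM sodium phosphate pH 7.0, 5 mM TCEP, 2% DMF. Reaction started with 200 uM NADPH and 5 uM BFC; initial fluorescence rates over 5 min fitted to Morrison tight-binding (non-partial) or Szedlacsek (partial) equations for Kiapp.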

[4] = Baculo. enzyme preparation, read-out: Kiapp (BFC, Baculo.)
[5] = Super. enzyme preparation, read-out: Kiapp (BFC, Super.)

T1 sequence (P08684 whole entry): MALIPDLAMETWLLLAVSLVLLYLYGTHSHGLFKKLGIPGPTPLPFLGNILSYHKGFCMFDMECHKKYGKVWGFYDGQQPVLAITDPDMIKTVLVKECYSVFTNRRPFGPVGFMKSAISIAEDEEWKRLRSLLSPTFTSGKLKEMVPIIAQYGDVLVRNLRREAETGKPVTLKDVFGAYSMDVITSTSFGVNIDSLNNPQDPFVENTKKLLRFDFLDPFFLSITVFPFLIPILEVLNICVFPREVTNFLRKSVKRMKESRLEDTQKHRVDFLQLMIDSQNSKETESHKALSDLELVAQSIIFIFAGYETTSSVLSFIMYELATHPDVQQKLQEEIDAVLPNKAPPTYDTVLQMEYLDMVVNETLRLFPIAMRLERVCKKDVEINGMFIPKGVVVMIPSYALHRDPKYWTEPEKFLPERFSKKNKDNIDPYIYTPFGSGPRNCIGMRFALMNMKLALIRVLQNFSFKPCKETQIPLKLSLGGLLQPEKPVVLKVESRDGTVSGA

SMILES	IC50 (CYP3A4 [1])	IC50 (CYP3A4 [2])	Ki (CYP3A4 [3]; [4])	Ki (CYP3A4 [3]; [5])
COc1cncc(NS(=O)(=O)c2ccc(F)cc2C(=O)NCCC(C)C)c1 [Example 303, 5-fluoro-2-{[(5-methoxypyridin-3-yl)amino]sulfonyl}-N-(3-methylbutyl)benzamide]	156 nM	30 nM	118 nM	31.6 nM
COc1cncc(NS(=O)(=O)c2ccc(F)cc2C(=O)N(C)C(C)C)c1 [Example 304, 5-fluoro-N-isopropyl-2-{[(5-methoxypyridin-3-yl)amino]sulfonyl}-N-methylbenzamide]	> 750 nM	119 nM	536 nM	171 nM
CCOc1cncc(NS(=O)(=O)c2ccccc2C(=O)N2CCOCC2)c1 [Example 305, N-(5-ethoxypyridin-3-yl)-2-(morpholin-4-ylcarbonyl)benzenesulfonamide]	> 750 nM	347 nM	753 nM	270 nM
CCCCNC(=O)c1ccccc1S(=O)(=O)Nc1cncc(OCC)c1 [Example 306, N-butyl-2-{[(5-ethoxypyridin-3-yl)amino]sulfonyl}benzamide]	48 nM	32 nM	77.8 nM	24.9 nM
COc1cncc(NS(=O)(=O)c2ccc(F)cc2C(=O)NCc2ccc(F)cc2)c1 [Example 307, 5-fluoro-N-(4-fluorobenzyl)-2-{[(5-methoxypyridin-3-yl)amino]sulfonyl}benzamide]	36 nM	44 nM	143 nM	16.8 nM
COc1cncc(NS(=O)(=O)c2ccc(Cl)cc2C(=O)N2CCCC(C)C2)c1 (stereo not drawn) [Example 308, 4-chloro-N-(5-methoxypyridin-3-yl)-2-[(3-methylpiperidin-1-yl)carbonyl]benzenesulfonamide]	95 nM	62 nM	513 nM	42 nM
COc1cncc(NS(=O)(=O)c2ccc(Cl)cc2C(=O)N(C)C(C)C)c1 [Example 309, 5-chloro-N-isopropyl-2-{[(5-methoxypyridin-3-yl)amino]sulfonyl}-N-methylbenzamide]	427 nM	149 nM	808 nM	145 nM
COc1cncc(NS(=O)(=O)c2ccc(Cl)cc2C(=O)NCc2ccc(F)cc2)c1 [Example 310, 5-chloro-N-(4-fluorobenzyl)-2-{[(5-methoxypyridin-3-yl)amino]sulfonyl}benzamide]	64 nM	53 nM	140 nM	28.3 nM
COc1cncc(NS(=O)(=O)c2ccccc2C(=O)NC(C)C2CC2)c1 (stereo not drawn) [Example 311, N-(1-cyclopropylethyl)-2-{[(5-methoxypyridin-3-yl)amino]sulfonyl}benzamide]	73 nM	34 nM	209 nM	76.2 nM
COc1cncc(NS(=O)(=O)c2ccccc2C(=O)NCc2ccc(F)c(C(F)(F)F)c2)c1 [Example 312, N-[4-fluoro-3-(trifluoromethyl)benzyl]-2-{[(5-methoxypyridin-3-yl)amino]sulfonyl}benzamide]	12 nM	13 nM	8.6 nM	3.5 nM
COc1cncc(NS(=O)(=O)c2ccccc2C(=O)NC(C)C(C)C)c1 (stereo not drawn) [Example 313, N-(1,2-dimethylpropyl)-2-{[(5-methoxypyridin-3-yl)amino]sulfonyl}benzamide]	55 nM	19 nM	197 nM	48.7 nM
COc1cncc(NS(=O)(=O)c2ccccc2C(=O)NCc2ccc(Cl)c(Cl)c2)c1 [Example 314, N-(3,4-dichlorobenzyl)-2-{[(5-methoxypyridin-3-yl)amino]sulfonyl}benzamide]	17 nM	17 nM	18.7 nM	4.5 nM
Cc1cncc(NS(=O)(=O)c2ccccc2C(=O)NC(C)C2CC2)c1 (stereo not drawn) [Example 315, N-(1-cyclopropylethyl)-2-{[(5-methylpyridin-3-yl)amino]sulfonyl}benzamide]	43 nM	22 nM	250 nM	42.2 nM
Cc1cncc(NS(=O)(=O)c2ccccc2C(=O)NCc2ccc(F)c(C(F)(F)F)c2)c1 [Example 316, N-[4-fluoro-3-(trifluoromethyl)benzyl]-2-{[(5-methylpyridin-3-yl)amino]sulfonyl}benzamide]	27 nM	17 nM	8.4 nM	1.2 nM
Cc1cncc(NS(=O)(=O)c2ccccc2C(=O)NC(C)C(C)C)c1 (stereo not drawn) [Example 317, N-(1,2-dimethylpropyl)2{[(5-methylpyridin-3-yl)amino]sulfonyl}benzamide]	19 nM	15 nM	144 nM	51.6 nM
Cc1cncc(NS(=O)(=O)c2ccccc2C(=O)NCc2ccc(Cl)c(Cl)c2)c1 [Example 318, N-(3,4-dichlorobenzyl)-2-{[(5-methylpyridin-3-yl)amino]sulfonyl}benzamide]	165 nM	145 nM	9.9 nM	1.9 nM
Cc1cncc(NS(=O)(=O)c2ccccc2C(=O)NCCc2ccccc2C)c1 [Example 319, N-[2-(2-methylphenyl)ethyl]-2-{[(5-methylpyridin-3-yl)amino]sulfonyl}benzamide]	11 nM	10 nM	4.3 nM	7.2 nM
Cc1cncc(NS(=O)(=O)c2ccccc2C(=O)NCc2ccc(F)c(F)c2)c1 [Example 320, N-(3,4-difluorobenzyl)-2-{[(5-methylpyridin-3-yl)amino]sulfonyl}benzamide]	8 nM	6 nM	10.1 nM	28.4 nM
Cc1cncc(NS(=O)(=O)c2ccccc2C(=O)N2CCCC2)c1 [Example 321, N-(5-methylpyridin-3-yl)-2-(pyrrolidin-1-ylcarbonyl)benzenesulfonamide]	129 nM	94 nM	195 nM	460 nM
COc1cncc(N(C)S(=O)(=O)c2ccccc2C(=O)NCc2cccc(F)c2)c1 [Example 322, N-(3-fluorobenzyl)-2-{[(5-methoxypyridin-3-yl)(methyl)amino]sulfonyl} benzamide]	15 nM	11 nM	54.4 nM	19.8 nM
CC(C)CCNC(=O)c1ccccc1S(=O)(=O)N(C)c1cccnc1 [Example 323, N-(3-methylbutyl)-2-{[methyl(pyridin-3-yl)amino]sulfonyl}benzamide]	59 nM	28 nM	210 nM	221 nM
CN(CC1CCCC1)C(=O)c1ccccc1S(=O)(=O)Nc1cccnc1 [Example 324, N-(cyclopentylmethyl)-N-methyl-2-[(pyridin-3-ylamino)sulfonyl]benzamide]	20 nM	11 nM	85.1 nM	21.7 nM
Cc1ccccc1CCNC(=O)c1ccccc1S(=O)(=O)N(C)c1cccnc1 [Example 325, N-[2-(2-methylphenyl)ethyl]-2-{[methyl(pyridin-3-yl)amino]sulfonyl}benzamide]	84 nM	119 nM	35 nM	8.6 nM
CN(c1cccnc1)S(=O)(=O)c1ccccc1C(=O)N1CCOCC1 [Example 326, N-methyl-2-(morpholin-4-ylcarbonyl)-N-pyridin-3-ylbenzenesulfonamide]	164 nM	132 nM	884 nM	273 nM
CN(c1cccnc1)S(=O)(=O)c1ccccc1C(=O)N1CCCC1 [Example 328, N-methyl-N-pyridin-3-yl-2-(pyrrolidin-1-ylcarbonyl)benzenesulfonamide]	> 750 nM	> 750 nM	> 1000 nM	484 nM
CCCN(CC1CC1)C(=O)c1ccccc1S(=O)(=O)N(C)c1cncc(OC)c1 [Example 329, N-(cyclopropylmethyl)-2-{[(5-methoxypyridin-3-yl)(methyl)amino]sulfonyl}-N-propylbenzamide]	58 nM	32 nM	34 nM	17.7 nM
Cc1cncc(NS(=O)(=O)c2ccccc2C(=O)NCC(C)(C)C)c1 [Example 330, N-(2,2-dimethylpropyl)-2-{[(5-methylpyridin-3-yl)amino]sulfonyl}benzamide]	55 nM	60 nM	204 nM	22.7 nM
CCCN(CC1CC1)C(=O)c1ccccc1S(=O)(=O)Nc1cncc(C)c1 [Example 331, N-(cyclopropylmethyl)-2-{[(5-methylpyridin-3-yl)amino]sulfonyl}-N-propylbenzamide]	14 nM	12 nM	75.2 nM	10.9 nM
CN(c1cccnc1)S(=O)(=O)c1ccccc1C(=O)NCC1CCCC1 [Example 332, N-(cyclopentylmethyl)-2-{[methyl(pyridin-3-yl)amino]sulfonyl}benzamide]	13 nM	13 nM	334 nM	61.2 nM
Cc1cncc(NS(=O)(=O)c2ccccc2C(=O)N2CC(C)CC(C)C2)c1 (stereo not drawn) [Example 333, 2-[(3,5-dimethylpiperidin-1-yl)carbonyl]-N-(5-methylpyridin-3-yl)benzenesulfonamide]	13 nM	24 nM	69.2 nM	22.9 nM
